Results taken from patent US6281354A, “Analogs of duocarmycin and cc-1065” (The Scripps Research Institute, priority 1999, dated 2001).

Assays:
[1] = Chemical/aqueous solvolysis reactivity followed by UV; type: physicochemical
Text: The solvolysis reactivities of N--BOC-CNA (78) and CNA (79) were followed spectrophotometrically by UV at both pH 3 (50% CH3 OH-buffer, buffer=4:1:20 v/v/v 0.1 M citric acid, 0.2 M Na2 HPO4, H2 O) and pH 7 (50% CH3 OH--H2 O). […] Particularly informative are comparisons of the benzo series of agents that differ only in the C-ring size (i.e., 76-79). Solvolysis reactivity smoothly increases through the series CBI<CBQ<CNA with both the N--BOC derivatives and the free NH derivatives.
Aqueous Solvolysis of N--BOC-CNA (78) and CNA (79). Samples of 78 (150 μg) and 79 (150 [g) were dissolved in CH3 OH (1.5 mL) and the resulting solutions were mixed with aqueous buffer (pH 3, 1.5 mL, 4:1:20 (v:v:v) 0.1 M citric acid, 0.2 M Na2 HPO4, and deionized H2 O respectively). Similarly, a solution of 78 (150 μg) in CH3 OH (1.5 mL) was mixed with deionized H2 O (pH 7, 1.5 mL). The UV spectra of the solutions were measured immediately after mixing with the appropriate aqueous solution. The blank and the solvolysis reaction solutions were stoppered, protected from light, and allowed to stand at 25° C. The total reaction times reflect those required to observe no further change in absorbance. For the solvolysis of 78 at pH 3, the UV spectrum was taken every 30 s for 10 min and then every 3 min for the next 40 min. The decrease of the absorbance at 319 nm was monitored. […] For the solvolysis of 78 at pH 7, the UV spectrum was monitored every 5 min for 19 h. […] For the solvolysis of 79 at pH 3, the UV spectrum was monitored every 2 min for the first 110 min and then every 10 min for the next 4 h. The decrease in the absorbance at 345 nm was recorded.

[2] = system: DNA; conditions: cited from earlier work
[3] = system: w794 DNA; conditions: pH 7.5, earlier studies; cited from earlier work
[4] = system: w794 DNA; assay: Rate of DNA alkylation at the single w794 high affinity site: pH and buffer dependence; type: biochemical, SV40; conditions: for change in rate of DNA alkylation over 2 pH units: 10 mM phosphate buffer, pH 6.0-8.1; for slope of plot of pH versus log κobs: pH 6-7; for pH dependence of the rate of DNA alkylation: pH 7-8
Experimental: Rate of DNA Alkylation: pH Dependence. […] Because this was conducted using w794 DNA additionally containing >7000 base-pairs and multiple binding sites within the unlabeled portion of the DNA, the comparisons were conducted at concentrations that provide saturated binding and restrict the kinetic analysis to the pseudo-first order rate constant for alkylation. […] The relative lack of dependence on the acid concentration (pH) especially in the most relevant pH range of 7-8 in conjunction with the observations made in the accompanying paper has led us to propose an alternative source of reaction catalysis.
Relative Rates of DNA Alkylation for (+)-1 at pH 6-8. Eppendorf tubes containing 5' end-labeled w794 DNA (9 μL) in phosphate buffer (10 mM) at pH 6.0, 6.6, 7.1, 7.6, and 8.1 were prepared. The solutions at each pH were treated with (+)-duocarmycin SA (1μL, 10^-6 M in DMSO), mixed and incubated at 25° C. for 0.5, 1.0, 1.5, 2.0 and 3.0 h. […] The reactions were stopped at each time interval by EtOH precipitation of the DNA. The alkylated DNA was resuspended in TE buffer (10 μL, pH 7.5) and heated at 100° C. for 30 min follwed by PAGE and autoradiography as detailed above.
Since these observations sharply contrast the proposed important role of acid catalysis for activation of the agents toward DNA alkylation which has served as the basis for one prominent proposal for the origin of the DNA alkylation selectivity, we have examined in detail the pH dependence of the rate of DNA alkylation for duocarmycin SA (1) and CCBI-TMI over a physiologically relevant range. […] Between pH 6-7, the slope of the plot of pH versus log κobs was 0.2-0.3, far lower than that of 1.0 required of a first-order dependence on acid concentration.

[5] = system: duplex DNA (w794, w836, c988, c820, c1346); type: biochemical, SV40
[6] = system: w836 DNA; assay: DNA alkylation sites and relative rates within the six-base A sequence (5'-AAAAAA) of w836 DNA; type: biochemical, SV40; conditions: 5'-AAAAAA
[7] = system: w794 DNA; assay: Relative rates of DNA alkylation for (+)-1, 53 and 54 at the w794 5'-AATTA site; type: biochemical, SV40
Experimental: Modifications in the Trimethoxyindole Subunit: Role of the Methoxy Substituents. DNA alkylation by the natural enantiomers of 53-56 were compared with that of 1 in w794 DNA.
Relative Rates of DNA Alkylation for (+)-1, 53, and 54. Following the procedure detailed above, Eppendorf tubes containing 5' end-labeled w794 DNA (9 μL) in TE buffer (pH 7.5) were treated with (+)-duocarmnycin SA, 53, or 54 (1 μL, 10^-5 M in DMSO). […] The solutions were mixed and incubated at 25° C. for 1, 3, 6, 12, 24, 48, and 72 h, respectively. Subsequent isolation of the alkylated DNA by EtOH precipitation, resuspension in TE buffer (10 μL, pH 7.5), thermolysis (30 min, 100° C.), concurrent PAGE, and autoradiography were conducted as detailed above. The relative rate for the alkylation at the 5'-AATTA site was derived from the slopes of the plots of percent integrated optical density (IOD) of the high affinity alkylation site cleavage bands versus time.

[8] = Calculated rate constant for acid-catalyzed solvolysis; type: physicochemical
[9] = In vitro cytotoxic activity
[10] = system: w794 DNA; assay: DNA alkylation (thermal strand cleavage, PAGE) within w794 DNA; type: biochemical, SV40
[11] = 10^-5 M, 25° C., 1-72 h, 5'-d(AATTA)
[12] = 10^-6 M, 25° C., pH 7.6, 10 mM phosphate

COC(=O)C1(C)NC2=C(C1=O)[C@@]13C[C@@H]1CN(C(=O)c1cc4cc(OC)c(OC)c(OC)c4[nH]1)C3=CC2=O (some centres unmarked) [duocarmycin A]
solvolysis reactivity/stability in words or rank order [1]: remarkable stability of 1-3 even at pH 5 | adenine N3 adduct formation (addition to least substituted cyclopropane carbon) [2]: 86-92%

COc1ccc2c(c1)C13CC1CN(C(=O)c1cc4cc(OC)c(OC)c(OC)c4[nH]1)C3=CC2=O (centres unmarked) [MCBI-TMI]
relative rate of DNA alkylation at w794 high affinity site [3]: 1.9 ×

COc1cc2cc(C(=O)N3C[C@H]4C[C@@]45C3=CC(=O)c3ccc(C#N)cc35)[nH]c2c(OC)c1OC [CCBI-TMI]
change in rate of DNA alkylation over 2 pH units ([4]; 10^-6 M, 25° C.): < 3 × | effect of EDTA on the rate of DNA alkylation ([4]; Tris or phosphate buffer): had or no effect | slope of plot of pH versus log κobs [4]: 0.2-0.3 | pH dependence of the rate of DNA alkylation [4]: the rate dependence on pH essentially disappeared | faster alkylation of w794 high affinity site than (+)-1 ([4]; throughout the pH range): 1.9-2.5 × | relative rate of DNA alkylation at w794 high affinity site [3]: 2.5 ×

COC(=O)c1cc2c([nH]1)C(=O)C=C1N(C(=O)c3cc4cc(OC)c(OC)c(OC)c4[nH]3)CC3CC123 (centres unmarked) [duocarmycin SA]
AT-rich adenine N3 alkylation selectivity (size of site) [5]: 3.5 base-pair | AT-rich binding site covered in w836 DNA [6]: 3.5 base-pair | alkylated adenines within six-base A-rich sequence of w836 DNA [6]: each of the four 3' adenines | concentration dependence of the rate of DNA alkylation ([7]; 10^-4 -10^-6 M): independent of agent concentration | relative rate of DNA alkylation κrel versus 53 [7, 11]: 18-33 | relative rate of DNA alkylation κrel, 1 versus 54 [7, 11]: 1.3-2.3 | concentration dependence of the rate of DNA alkylation (pH study) ([4]; 10^-4 -10^-6 M): independent of agent concentration | change in rate of DNA alkylation over 2 pH units ([4]; 10^-6 M, 25° C.): < 2 × | change in rate of DNA alkylation over 2 pH units ([4]; 10^-6 M, 25° C., listed as (+)-duocarmycin SA (1)): < 3 × | pseudo-first order rate constant for DNA alkylation, pH 7.1 ([4]; 10^-6 M, 25° C., pH 7.1, 5'-AATTA): 1.69×10^-4 s^-1 | pseudo first-order rate constant for DNA alkylation, pH 7.6 [4, 12]: 1.58×10^-4 s^-1 | slope of plot of pH versus log κobs [4]: 0.2-0.3 | pH dependence of the rate of DNA alkylation [4]: essentially no dependence | pH dependence of the rate of DNA alkylation ([4]; listed as (+)-duocarmycin SA): the rate dependence on pH essentially disappeared | pH dependence of the rate of DNA alkylation ([4]; listed as (+)-duocarmycin SA (1)): the rate dependence on pH essentially disappeared | t1/2 of DNA alkylation ([4]; pH 7 / 7.1): 1.1 h | t1/2 of DNA alkylation, pH 7.6 ([4]; pH 7.6): 1.2 h | calculated rate constant for acid-catalyzed solvolysis, pH 7 ([8]; pH 7): 1.08×10^-10 s^-1 | calculated first-order rate constant for acid-catalyzed solvolysis, pH 7.6 [8]: 2.7×10^-11 s^-1 | relative rate of DNA alkylation at w794 high affinity site [3]: 0.9 × | adenine N3 adduct formation (addition to least substituted cyclopropane carbon) [2]: 95-100% | cytotoxic / antitumor activity in words [9]: biologically the most potent

COc1cc2cc(C(=O)N3CC4CC45C3=CC(=O)c3ccccc35)[nH]c2c(OC)c1OC (centres unmarked) [CBI-TMI]
relative rate of DNA alkylation at w794 high affinity site [3]: 1.0 ×

COc1c(O)c2c(c3cc(C(=O)N4CCc5c4c(O)c(OC)c4[nH]c(C(=O)N6C[C@H]7C[C@@]78C6=CC(=O)c6[nH]cc(C)c68)cc54)[nH]c13)CCN2C(N)=O [(+)-CC-1065, reference compound]
AT-rich adenine N3 alkylation selectivity (size of site) [5]: 5 base-pair | high affinity alkylation site in w794 DNA [10]: 5'-AATTA | pseudo first-order rate constant for DNA alkylation, pH 7.6 (unit not given) [4, 12]: 3.36×10^-4 | solvolysis reactivity/stability in words or rank order [1]: remarkable stability of 1-3 even at pH 5 | calculated first-order rate constant for acid-catalyzed solvolysis, pH 7.6 [8]: 2.5×10^-11 s^-1 | adenine N3 adduct formation (addition to least substituted cyclopropane carbon) [2]: > 85%
